Here are results for six molecules from patent US20220204497A1, “NOVEL COMPOUND HAVING ANTICANCER ACTIVITY, AND METHOD FOR PRODUCING SAME” (MEDICINAL BIOCONVERGENCE RESEARCH CENTER, priority 2019, published 2022).

In series [1] the test system is H460 cells. Briefly: In vivo cancer growth inhibition in H460 xenograft animal model. The note with it: 50 mg/kg intraperitoneally once every 2 days, 16 days. Also on record: species or system BALB/cAnCr female rats. On the procedure: FIG. 4 is a result of testing the cancer cell growth inhibitory effect of compound No. 55 and compound No. 89 among the compounds of the Formula 1 according to the present invention and the tumor distribution of the drug in the H460 xenograft animal model. Taxol was used as a positive control.
H460 cells (2×10^7) were subcutaneously implanted in 7-week-old BALB/cAnCr female […], and then Compound No. 55 or Compound No. 89 (50 mg/kg) and Taxol (10 mg/kg) were administered intraperitoneally once every 2 days. The drug was administered for 16 days, and the size of the tumor and the weight of the animal were measured during administration. After 16 days, the animals were sacrificed and the size and weight of the removed tumors were measured.

In a further series the test system is A549 cells. Nature of the series: Cell viability by MTT method in A549 cells. The note with it: 72 hours treatment. Type of series: cell-based. Also on record: concentration or dose not given beside the values. For orientation: Tetrazolium assays rely on reduction of a dye to a coloured formazan, in cell work by metabolically active cells.
In a further series the target is T1, AIMP2-DX2 (Homo sapiens, UniProt Q13155).
T1 sequence (Q13155 1-251 isoform Q13155-2): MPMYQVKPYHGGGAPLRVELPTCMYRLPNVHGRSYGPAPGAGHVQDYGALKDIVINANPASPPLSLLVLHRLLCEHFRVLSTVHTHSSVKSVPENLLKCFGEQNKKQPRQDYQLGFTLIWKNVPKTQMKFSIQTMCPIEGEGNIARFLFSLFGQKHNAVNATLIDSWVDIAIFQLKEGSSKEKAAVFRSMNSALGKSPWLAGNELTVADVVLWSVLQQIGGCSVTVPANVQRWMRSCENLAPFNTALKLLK
Briefly: DX2-nanoluciferase assay (DX2 expression change) in transfected A549 cells. To be noted: A549, 4 h; for inhibition at 10 µM: read-out: DX-Nanoluciferase activity (10 μM), 10 μM, 4 hours treatment, A549 cells transfected with nanoluciferase-DX2.

In series [2] the test system is H460 cells. Nature of the series: In vivo anti-cancer efficacy in mice transplanted with H460 cells. To be noted: 50 mg/kg intraperitoneally once every two days, 15 days. Also on record: species or system mouse. As for the experimental part:
FIGS. 3a to 3d are the results of observing the tumor growth while administering compound No. 63 (50 mg/kg) once every two days intraperitoneally for a total of 15 days to a mouse transplanted with H460 cells. (FIG. 3a: macroscopic observation of each mouse and tumor after the end of administration, FIG. 3b: tumor growth curve over time, FIG. 3c: the weight of each tumor obtained at the end of administration, FIG. 3d: change in body weight of animals during administration period).
Next, the anti-cancer efficacy of compound No. 63 was evaluated in a mouse model transplanted with H460 cells.
Specifically, the compound No. 63 was intraperitoneally administered to mice transplanted with H460 cells at 50 mg/kg, once every two days for a total of 15 days.

Protocol for AIMP2-DX2: After cloning DX2 into a plasmid expressing nanoluciferase, the plasmid was transfected into A549 cells. Transfected cells were seeded 1×10^4 per well in a 96-well plate and stabilized for 12 hours. […] Cell viability was measured by the MTT method after 72 hours of treatment with each concentration of the compound in A549 cells.

On to `COc1ccc(-c2csc(NC(=O)[C@H](CC(C)C)NS(=O)(=O)c3ccc(C)cc3)n2)cc1` [Compound 55, (S)—N-(4-(4-methoxyphenyl)thiazol-2-yl)-4-methyl-2-(4-methylphenylsulfonamido)pentanamide], for which the “body weight of the animal during treatment (side effect)” value with H460 cells [1] is given as “no change in the body weight”. Moreover, in the series with H460 cells [1] (H460 xenograft), the “cancer growth inhibitory effect” value is recorded as “about 50%”. For the same molecule, in the series on A549 cells, the “Cell Viability (% inhibition) (A549)” value amounted to 89.25 ± 2.03%. Besides, the inhibition at 40 µM at AIMP2-DX2 (read-out: DX-Nanoluciferase activity (40 μM), 40 μM, 4 hours treatment, A549 cells transfected with nanoluciferase-DX2, inhibitory effect on AIMP2-DX2 expression) worked out at 70.3 ± 3.23%.
Take `COc1ccc(-c2csc(NC(=O)[C@H](Cc3c[nH]c4ccccc34)NS(=O)(=O)c3ccc(C)cc3)n2)cc1` [Compound 63, (S)-3-(1H-indol-3-yl)-N-(4-(4-methoxyphenyl)thiazol-2-yl)-2-(4-methylphenylsulfonamido)propanamide]: the “body weight of the animals during administration” value with H460 cells [2] is “no change in the body weight”. Moreover, the tumor growth result in the series on H460 cells [2] (H460 transplanted mice) was “significantly inhibited the growth of tumors”. Also, the “Cell Viability (% inhibition) (A549)” value in the series with A549 cells was 86.53 ± 1.35%.
Regarding `Cc1ccc(CCNC(=O)[C@H](Cc2c[nH]c3ccccc23)NS(=O)(=O)c2ccc(C)cc2)cc1` [Compound 223, (S)-3-(1H-indol-3-yl)-N-(4-methylphenethyl)-2-(4-methylphenylsulfonamido)propanamide], the “Cell Viability (% inhibition) (A549)” value in the series on A549 cells is on record as 93.28 ± 1.51%. In addition, on AIMP2-DX2, the inhibition at 10 µM is 34.9 ± 11.8%.
The matching figures for `CCOC(=O)C(Cc1c[nH]c2ccccc12)NC(=O)[C@H](Cc1c[nH]c2ccccc12)NS(=O)(=O)c1ccc(C)cc1` (stereo partly drawn) [Compound 224, Ethyl 2-((S)-3-(1H-indol-3-yl)-2-(4-methylphenylsulfonamido)propanamido)-3-(1H-indol-3-yl)propanoate]: 93.83 ± 0.34% and 42.7 ± 8.97%.
The matching figures for `Cc1ccc(S(=O)(=O)N[C@@H](Cc2c[nH]c3ccccc23)C(=O)NCCc2ccc(Cl)cc2)cc1` [Compound 225, (S)—N-(4-chlorophenethyl)-3-(1H-indol-3-yl)-2-(4-methylphenylsulfonamido)propanamide]: 95.8 ± 0.48% and 88.7 ± 6.08%.
For `Cc1ccc(S(=O)(=O)N[C@@H](Cc2c[nH]c3ccccc23)C(=O)NC(Cc2c[nH]c3ccccc23)C(=O)O)cc1` (stereo partly drawn) [Compound 226, 2-((S)-3-(1H-indol-3-yl)-2-(4-methylphenylsulfonamido)propanamido)-3-(1H-Indol-3-yl)propanoic acid], in that order: 1.11 ± 7.23% and 38.1 ± 14.9%.
